Assay in all cases: Kinase panel profiling at 1 µmol/L (MSA or IMAP), percentage inhibition
Holding throughout (assay type): biochemical

Assay [1] addresses panel of 255 wild-type kinases (Homo sapiens, UniProt P49674). To be noted: kinase CK1ε; 1 µmol/L single concentration; read-out: %-inhibition at 1 µmol/L, CK1ε.
Assay [2] deals with T1, panel of 255 wild-type kinases (Homo sapiens, UniProt P52333).
T1 sequence (P52333 1-1124): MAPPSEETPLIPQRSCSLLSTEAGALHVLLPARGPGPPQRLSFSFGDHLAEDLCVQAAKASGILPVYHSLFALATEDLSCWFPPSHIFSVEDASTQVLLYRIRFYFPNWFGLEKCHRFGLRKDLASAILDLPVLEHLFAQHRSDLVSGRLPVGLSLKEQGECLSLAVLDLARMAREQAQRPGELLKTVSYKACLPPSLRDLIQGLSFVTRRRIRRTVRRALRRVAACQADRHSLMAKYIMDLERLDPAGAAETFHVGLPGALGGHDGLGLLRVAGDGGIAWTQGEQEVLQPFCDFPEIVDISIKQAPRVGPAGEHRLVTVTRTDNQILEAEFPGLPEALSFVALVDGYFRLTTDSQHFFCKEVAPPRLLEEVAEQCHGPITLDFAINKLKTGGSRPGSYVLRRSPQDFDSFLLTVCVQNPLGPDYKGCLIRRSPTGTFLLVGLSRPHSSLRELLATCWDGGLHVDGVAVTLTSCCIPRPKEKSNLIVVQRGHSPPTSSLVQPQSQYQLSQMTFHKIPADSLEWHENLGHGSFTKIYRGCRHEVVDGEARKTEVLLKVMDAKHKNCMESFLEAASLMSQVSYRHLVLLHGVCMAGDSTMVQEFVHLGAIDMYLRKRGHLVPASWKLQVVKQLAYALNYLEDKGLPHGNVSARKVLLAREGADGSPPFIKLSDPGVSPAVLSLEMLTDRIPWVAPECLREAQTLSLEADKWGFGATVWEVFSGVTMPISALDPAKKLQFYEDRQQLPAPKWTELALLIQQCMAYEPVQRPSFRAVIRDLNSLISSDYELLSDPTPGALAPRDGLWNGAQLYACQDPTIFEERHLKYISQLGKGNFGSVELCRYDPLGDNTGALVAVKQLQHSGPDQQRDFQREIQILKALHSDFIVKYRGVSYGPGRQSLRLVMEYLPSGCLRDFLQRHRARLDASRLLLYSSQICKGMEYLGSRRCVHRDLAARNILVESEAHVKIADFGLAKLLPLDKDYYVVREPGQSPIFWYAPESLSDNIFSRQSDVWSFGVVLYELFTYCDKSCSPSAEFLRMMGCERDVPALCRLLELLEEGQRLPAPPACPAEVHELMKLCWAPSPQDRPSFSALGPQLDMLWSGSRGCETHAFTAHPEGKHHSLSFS
To be noted: read-out: %-inhibition at 1 µmol/L, JAK3.

The target of assay [3] is panel of 255 wild-type kinases (Homo sapiens, UniProt Q07912). To be noted: ACK kinase assay; 1 µmol/L single concentration; read-out: %-inhibition ACK.
Assay [4] has as its target panel of 255 wild-type kinases (Homo sapiens, UniProt Q13177). The settings on record: PAK2; 1 µmol/L single concentration; read-out: %-inhibition, PAK2.
Assay [5] addresses T2, panel of 255 wild-type kinases (Homo sapiens, UniProt Q14164).
T2 sequence (Q14164 1-716): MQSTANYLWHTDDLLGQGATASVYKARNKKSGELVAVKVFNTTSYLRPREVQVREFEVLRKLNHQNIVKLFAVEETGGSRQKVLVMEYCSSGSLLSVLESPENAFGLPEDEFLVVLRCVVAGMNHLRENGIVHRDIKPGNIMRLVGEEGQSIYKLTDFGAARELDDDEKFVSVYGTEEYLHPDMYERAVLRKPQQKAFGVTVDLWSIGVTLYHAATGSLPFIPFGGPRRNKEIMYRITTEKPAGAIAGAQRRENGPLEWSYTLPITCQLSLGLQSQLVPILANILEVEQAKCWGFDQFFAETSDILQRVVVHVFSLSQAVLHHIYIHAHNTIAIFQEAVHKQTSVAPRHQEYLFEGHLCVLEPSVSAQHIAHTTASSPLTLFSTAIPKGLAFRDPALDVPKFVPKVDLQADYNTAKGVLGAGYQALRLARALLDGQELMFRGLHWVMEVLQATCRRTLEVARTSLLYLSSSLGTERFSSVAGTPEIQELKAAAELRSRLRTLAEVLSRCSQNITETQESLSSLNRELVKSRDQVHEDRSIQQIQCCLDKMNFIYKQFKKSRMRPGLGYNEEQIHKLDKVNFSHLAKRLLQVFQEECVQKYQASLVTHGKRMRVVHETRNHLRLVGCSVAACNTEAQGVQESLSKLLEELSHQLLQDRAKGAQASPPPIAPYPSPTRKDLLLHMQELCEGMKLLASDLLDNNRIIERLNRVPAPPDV
The settings on record: kinase IKKε; 1 µmol/L single concentration; read-out: %-inhibition at 1 µmol/L, IKKε.

For assay [6], the target named is panel of 255 wild-type kinases (Homo sapiens, UniProt Q8TDX7). To be noted: NEK7; 1 µmol/L single concentration; read-out: %-inhibition, NEK7.
Assay [7] concerns the target panel of 255 wild-type kinases (Homo sapiens, UniProt Q9UKE5). To be noted: kinase TNIK; 1 µmol/L single concentration; read-out: %-inhibition at 1 µmol/L, TNIK.
[8] abbreviates: kinase JAK3, 1 µmol/L single concentration.

This passage reports inhibition results from PMC9516332 (Frontiers in Oncology, 2022).

Read-outs that look alike come from different tables or passages of the source.

For the compound `CCn1c(=O)c(-c2cc(NC(=O)Nc3ccccc3)c(F)cc2Br)cc2cnc(NC)cc21` [ripretinib], the inhibition at 1 µM in assay [1] was 1.8%; in assay [2] (setting [8]), 7%; in assay [3], 23%; in assay [4] it was 4.69%; in assay [5], -5%; in assay [6], -7%. The inhibition at 1 µM in assay [7] was 28%.

`COc1ccc(CN2C3CC2CN(c2ccc(-c4cc(OCC(C)(C)O)cn5ncc(C#N)c45)cn2)C3)cn1` [selpercatinib]: the inhibition at 1 µM in assay [1] stood at 2.36%; in assay [2] (setting [8]) it was 27%; in assay [3], 4.48%; in assay [4] it was 5%; in assay [5] it was 20%; in assay [6] it was 1%. For the same compound, the inhibition at 1 µM in assay [7] came to 6%.

With `Cn1cnc2c(F)c(Nc3ccc(Br)cc3Cl)c(C(=O)NOCCO)cc21` [selumetinib], the inhibition at 1 µM in assay [1] was -0.361%; in assay [2] (setting [8]), 6%; in assay [3], 0.731%; in assay [4], -3.7%; in assay [5] it was -5.67%; in assay [6] it was -0.844%. In addition, the inhibition at 1 µM in assay [7] stood at 2.3%.

Take `Cc1cc(Nc2ncnc3ccc(NC4=NC(C)(C)CO4)cc23)ccc1Oc1ccn2ncnc2c1` [tucatinib]: the inhibition at 1 µM in assay [1] was 0.505%; in assay [2] (setting [8]), 4.65%; in assay [3] it was 9%; in assay [4] it was -1.88%; in assay [5], -2.62%; in assay [6], -5.58%. Also, in assay [7], the inhibition at 1 µM was 4%.

As to `C=CC(=O)N1CCC([C@@H]2CCNc3c(C(N)=O)c(-c4ccc(Oc5ccccc5)cc4)nn32)CC1` [zanubrutinib], the inhibition at 1 µM in assay [1] was determined as 4.32%; in assay [2] it was 10%; in assay [3], 11%; in assay [4] it was 10%; in assay [5], 6%; in assay [6] it was 2%. Besides, in assay [7], the inhibition at 1 µM is 6.44%.
